Assay results as given in PubChem BioAssay (NCI).
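1) Cells in 96-well plates. 2) Compound, 48 h, 5 concentrations. 3) Linear interpolation between surrounding doses. 4) Unreached endpoint = highest concentration. GI50 is the concentration that inhibits growth by half. TGI denotes the concentration required for complete inhibition of growth.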

Legend:
Assay in all cases: growth of human tumour cells (NCI), 48 h
[1] = tested on: SNB-75 CNS
[2] = tested on: HCT-15 colon
[3] = tested on: CAKI-1 renal
[4] = tested on: OVCAR-4 ovarian
[5] = tested on: MDA-MB-435
[6] = tested on: DU-145 prostate
[7] = tested on: SN12C renal
[8] = tested on: SK-MEL-28 melanoma

SMILES | GI50 [1] | TGI [1] | GI50 [2] | TGI [2] | GI50 [3] | TGI [3] | GI50 [4] | TGI [4] | GI50 [5] | TGI [5] | GI50 [6] | TGI [6] | GI50 [7] | TGI [7] | GI50 [8] | TGI [8]
CCN=C1C=CC(=C(c2ccc(N(C)C)cc2)c2ccc(N(C)C)cc2)c2ccccc21 | 0.0833 µM | 0.332 µM | 0.294 µM | 1.31 µM | 0.2 µM | 0.52 µM | 0.114 µM | 1.6 µM | 0.0705 µM | 0.408 µM | 0.0829 µM | 0.357 µM | 0.035 µM | 1.37 µM | 0.15 µM | 1.66 µM
Fc1ccc(-c2nc3n(c2-c2ccncc2)CCS3)cc1 | > 25 µM | > 25 µM | > 25 µM | > 25 µM | > 25 µM | > 25 µM | 9.67 µM | > 25 µM | > 25 µM | > 25 µM | > 25 µM | > 25 µM | > 25 µM | > 25 µM | > 25 µM | > 25 µM
CCOC(=O)Cc1c[nH]c(=S)[nH]c1=O | > 100 µM | > 100 µM | > 100 µM | > 100 µM | > 100 µM | > 100 µM | > 100 µM | > 100 µM | > 100 µM | > 100 µM | > 100 µM | > 100 µM | > 100 µM | > 100 µM | > 100 µM | > 100 µM
O=C1C(Cl)=C(N/N=c2/[nH][nH]/c(=N/NC3=C(Cl)C(=O)c4ccccc4C3=O)c3ccccc23)C(=O)c2ccccc21 | 1.49 µM | 15.3 µM | 19.8 µM | > 100 µM | 17.7 µM | 41.4 µM | 12 µM | 28.5 µM | 17.8 µM | 36.6 µM | 17.8 µM | 33.6 µM | 15 µM | 29.5 µM | 19.5 µM | 39 µM
C=C1C(=O)O[C@@H]2C1CC(=O)C(C)CC/C=C(\C)CCC[C@H](C)[C@H]2OC(C)=O (some centres undefined) | 14.9 µM | 29.8 µM | 13.7 µM | 30.4 µM | 11.9 µM | 24.4 µM | 15.2 µM | 32 µM | 14.7 µM | 28 µM | 15 µM | 31.7 µM | 5.46 µM | 21.6 µM | 11.8 µM | 25.3 µM
CC(=O)OC1c2ccccc2CC2(OC(C)=O)c3ccccc3C12 (centres undefined) |  | > 100 µM |  | > 100 µM |  | > 100 µM |  | > 100 µM |  | > 100 µM |  | > 100 µM |  | > 100 µM |  | > 100 µM
COc1cccc(C2=C(c3cn(C)c4ccccc34)C(=O)NC2=O)c1 | 1.32 µM | > 25 µM | 5.57 µM | > 25 µM | 7.9 µM | > 25 µM | 9.61 µM | > 25 µM | 6.38 µM | > 25 µM | > 25 µM | > 25 µM | 12.5 µM | > 25 µM | > 21.7 µM | > 25 µM
N=C(N)c1nn(C2OC(CO)C(O)C2O)c2nc[nH]c(=O)c12 (centres undefined) | 1.48 µM | 7.27 µM | 0.587 µM | 5.71 µM | 0.264 µM | 1.2 µM | 0.647 µM | 7.84 µM | 0.311 µM | 1.16 µM | 0.196 µM | 0.78 µM | 0.315 µM | 2.37 µM | 0.336 µM | 1.55 µM
O=C(O)CS(=O)(=O)C(c1ccccc1)c1ccccc1 |  | > 100 µM |  | > 100 µM |  | > 100 µM |  | > 100 µM |  | > 100 µM |  | > 100 µM |  | > 100 µM |  | > 100 µM
CC1Oc2cc3c(-c4c(O)cc(O)c5c(O)c6c(cc45)OC(C)C(C)C6=O)c(O)cc(O)c3c(O)c2C(=O)C1C (centres undefined) |  | 0.557 µM |  | 1.15 µM |  | 2.36 µM |  | 4.98 µM |  | 1.16 µM |  | 10.7 µM |  | 1.12 µM |  | 1.96 µM
N#CC(C#N)=Cc1ccc(-c2ccc(-c3nc4ccccc4s3)cc2)o1 | 25.3 µM | 60 µM | 11.9 µM | 50.4 µM | 25 µM | > 100 µM | 30.5 µM | > 100 µM | 25.4 µM | 81.8 µM | 18.2 µM | 78.2 µM | 1.09 µM | 12.6 µM | 27.5 µM | > 100 µM
C=C(C)[C@@H]1CC[C@]2(C(=O)NCCCN)CC[C@]3(C)[C@H](CC[C@@H]4[C@@]5(C)CC[C@H](O)C(C)(C)[C@@H]5CC[C@]43C)[C@@H]12 | 32.1 µM | > 100 µM | 21.7 µM | > 100 µM | 21.9 µM | > 100 µM | 25.6 µM | > 100 µM | 28.7 µM | > 100 µM | 17.5 µM | 37.1 µM | 20.8 µM | 82.6 µM | 22.1 µM | 57.8 µM
CN(C)CCNC(=O)c1cccn2c(=O)c3cc4ccccc4cc3nc12 | 0.28 µM | 1.77 µM | 0.2 µM | > 100 µM | 0.0711 µM | 0.593 µM | 0.323 µM | 7.67 µM | 0.181 µM | 1.19 µM | 0.103 µM | 0.391 µM | 0.144 µM | > 100 µM | 0.424 µM | 2.9 µM
